Experimental data: patent publication US7595400B2, “Process for the preparation of hexacyclic compounds” (Chugai Seiyaku Kabushiki Kaisha, priority 2003, dated 2009)

Assays:
HCT116 (CRC) = assay: Anti-proliferative activity assay (WST-8), HCT116; format: cell-based, human; conditions: HCT116 colorectal cancer cells, 4 days incubation
Protocol: (§1) The Antiproliferative activity assay was carried out as follows. A single suspension of tumor cells was inoculated to the serially diluted 96-well microtestplate. Then the testplate was incubated in the 5% CO2 ambience at 37° C. for 4 days (2-3×10^3 cells/well). The degree of cell growth in a monolayer was measured by using WST-8 (Dojindo, Japan). IC50 values of drugs against tumor cells were calculated as the concentration of drug yielding 50% OD of the control growth. The IC50 value measures the drug concentration for 50% of the growth of tumor cells in vitro as compared to the control.
(§2) Anti-tumor activities of hexacyclic compounds of formula [1] against in vitro growth of human tumor cell lines, HCT116 and DLD-1 of colorectal cancer (CRC) and QG56 and NCI-H460 of non small cell lung cancer (NSCLC) are shown in Table 1. These cell lines are commercially available via the American Type Culture Collection (ATTC).

DLD-1 (CRC) = assay: Anti-proliferative activity assay (WST-8), DLD-1; format: cell-based, human; conditions: DLD-1 colorectal cancer cells, 4 days incubation
Protocol: as §1, §2

QG56 (NSCLC) = assay: Anti-proliferative activity assay (WST-8), QG56; format: cell-based, human; conditions: QG56 non small cell lung cancer cells, 4 days incubation
Protocol: as §1, §2

NCI-H460 (NSCLC) = assay: Anti-proliferative activity assay (WST-8), NCI-H460; format: cell-based, human; conditions: NCI-H460 non small cell lung cancer cells, 4 days incubation
Protocol: as §1, §2

[1] = converted to the inactive carboxylate form; cited from earlier work

Compound	IC50 (HCT116 (CRC))	IC50 (DLD-1 (CRC))	IC50 (QG56 (NSCLC))	IC50 (NCI-H460 (NSCLC))	half-life in plasma [1]
CCc1c2c(nc3ccc(O)cc13)-c1cc3c(c(=O)n1C2)COC(=O)[C@]3(O)CC [SN-38, 7-ethyl-10-hydroxycamptothecin]	6.9 nM	53 nM	27 nM	21 nM	–
CC[C@@]1(O)C(=O)OCc2c1cc1n(c2=O)Cc2cc3ccccc3nc2-1 [camptothecin]	–	–	–	–	less than 30 min
